Measurements taken from patent US10597388B2, “Pyridazinone herbicides” (FMC CORPORATION, priority 2014, dated 2020).

Experiments:
Type in all cases: in vivo
[1] = tested on: wheat, spring (spring wheat, Triticum aestivum); test: Test D controlled growth environment herbicide test, pre- and postemergence
Method in brief: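 Rating is visual, 0–100 scale (100 = complete control), made against untreated plants 14–21 d after treatment in controlled growth conditions. Postemergence sprays went onto 1- to 4-leaf plants in peat medium; preemergence sprays onto silt loam after sowing; formulation included a surfactant.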

[2] = tested on: arrowleaf sida (Sida rhombifolia); test: Test E greenhouse herbicide test, pre- and postemergence
Method in brief: (§1)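 Scores (0–100, visual, vs controls) reflect greenhouse growth of 14 to 21 d after treatment. Application was pre-emergence to silt loam or post-emergence at the 1- to 4-leaf stage.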

[3] = tested on: beggarticks (hairy beggarticks, Bidens pilosa); test: as above
Method in brief: as §1

[4] = tested on: dayflower (Virginia (VA) dayflower, Commelina virginica); test: as above
Method in brief: as §1

[5] = tested on: field bindweed (Convolvulus arvensis); test: as above
Method in brief: as §1

[6] = tested on: horseweed (Conyza canadensis); test: as above; details: Postemergence
Method in brief: as §1

[7] = tested on: lambsquarters (Chenopodium album); test: as above; details: Preemergence
Method in brief: as §1

[8] = tested on: momingglory (Ipomoea coccinea); test: as above; details: Preemergence
Method in brief: as §1

[9] = tested on: panicum, fall (fall panicum, Panicum dichotomiflorum); test: as above
Method in brief: as §1

soybean (Glycine max) = test: as above
Method in brief: as §1

[10] = 62 g ai/ha, Postemergence, scale 0 to 100 (0 no effect, 100 complete control)
[11] = 62 g ai/ha, Preemergence, scale 0 to 100 (0 no effect, 100 complete control)
[12] = 125 g ai/ha, Postemergence, scale 0 to 100 (0 no effect, 100 complete control)
[13] = 125 g ai/ha, Preemergence, scale 0 to 100 (0 no effect, 100 complete control)
[14] = 250 g ai/ha, Postemergence, scale 0 to 100 (0 no effect, 100 complete control)
[15] = Postemergence, 31 g ai/ha, visual, scale 0 no effect to 100 complete control
[16] = Preemergence, 31 g ai/ha, scale 0 to 100, 0 no effect, 100 complete control
[17] = Preemergence, 250 g ai/ha, visual, scale 0 no effect to 100 complete control
[18] = 62 g ai/ha, scale 0 to 100 (0 no effect, 100 complete control)
[19] = 125 g ai/ha, scale 0 to 100 (0 no effect, 100 complete control)
[20] = 31 g ai/ha, scale 0 to 100, 0 no effect, 100 complete control
[21] = 250 g ai/ha, visual, scale 0 no effect to 100 complete control

CCOC(=O)Oc1c(C)nn(C)c(=O)c1-c1c(C)sc2c(C)cc(C)cc12 [Compound 83]
Wheat, Spring plant response rating ([1]; Postemergence, 31 g ai/ha, scale 0 to 100 (0 no effect, 100 complete control)): 0
Plant response rating, Wheat, Spring ([1]; Postemergence, 125 g ai/ha, visual rating on scale 0 (no effect) to 100 (complete control), 14 to 21 d): 5
Plant response rating, Wheat, Spring ([1]; Postemergence, 250 g ai/ha, scale 0 to 100 (0 no effect, 100 complete control)): 20
Plant response rating (scale of 0 to 100), Wheat, Spring ([1]; Preemergence, 31 g ai/ha): 0
Plant response rating (scale of 0 to 100), Wheat, Spring ([1]; Preemergence, 62 g ai/ha): 0
Plant response rating, Wheat, Spring ([1]; Preemergence, 125 g ai/ha, scale 0 to 100 (0 no effect, 100 complete control)): 10
Plant response rating, Wheat, Spring ([1]; Preemergence, 250 g ai/ha, scale 0 to 100 (0 no effect, 100 complete control)): 35
Plant response rating, Wheat, Spring ([1]; postemergence, 62 g ai/ha, scale 0 to 100, 0 no effect, 100 complete control): 0
Plant response rating, Arrowleaf Sida [2, 10]: 50
Plant response rating, Arrowleaf Sida [2, 11]: 25
Plant response rating, Arrowleaf Sida [2, 12]: 60
Plant response rating, Arrowleaf Sida [2, 13]: 35
Plant response rating, Arrowleaf Sida [2, 14]: 60
Plant response rating, Arrowleaf Sida [2, 15]: 50
Plant response rating, Arrowleaf Sida [2, 16]: 15
Plant response rating, Arrowleaf Sida [2, 17]: 65
Plant response rating, Beggarticks [3, 10]: 100
Plant response rating, Beggarticks [3, 11]: 100
Plant response rating, Beggarticks [3, 12]: 100
Plant response rating, Beggarticks [3, 13]: 100
Plant response rating, Beggarticks [3, 14]: 100
Plant response rating, Beggarticks [3, 15]: 98
Plant response rating, Beggarticks [3, 16]: 100
Plant response rating, Beggarticks [3, 17]: 100
Plant response rating, Dayflower, VA [4, 10]: 60
Plant response rating, Dayflower, VA [4, 11]: 10
Plant response rating, Dayflower, VA [4, 12]: 75
Plant response rating, Dayflower, VA [4, 13]: 25
Plant response rating, Dayflower, VA [4, 14]: 70
Plant response rating, Dayflower, VA [4, 15]: 50
Plant response rating, Dayflower, VA [4, 16]: 0
Plant response rating, Dayflower, VA [4, 17]: 65
Plant response rating, Field Bindweed [5, 10]: 70
Plant response rating, Field Bindweed [5, 11]: 5
Plant response rating, Field Bindweed [5, 12]: 70
Plant response rating, Field Bindweed [5, 13]: 35
Plant response rating, Field Bindweed [5, 14]: 75
Plant response rating, Field Bindweed [5, 15]: 60
Plant response rating, Field Bindweed [5, 16]: 0
Plant response rating, Field Bindweed [5, 17]: 100
Plant response rating, Horseweed [6, 18]: 80
Plant response rating, Horseweed [6, 19]: 85
Plant response rating, Horseweed ([6]; 250 g ai/ha, scale 0 to 100 (0 no effect, 100 complete control)): 90
Plant response rating, Horseweed ([6]; 31 g ai/ha, visual, scale 0 no effect to 100 complete control): 75
Plant response rating, Lambsquarters [7, 18]: 98
Plant response rating, Lambsquarters [7, 19]: 100
Plant response rating, Lambsquarters [7, 20]: 100
Plant response rating, Lambsquarters [7, 21]: 100
Plant response rating, Morningglory [8, 18]: 20
Plant response rating, Morningglory [8, 19]: 95
Plant response rating, Morningglory [8, 20]: 25
Plant response rating, Morningglory [8, 21]: 100
Plant response rating, Panicum, Fall [9, 10]: 70
Plant response rating, Panicum, Fall [9, 11]: 95
Plant response rating, Panicum, Fall [9, 12]: 80
Plant response rating, Panicum, Fall [9, 13]: 100
Plant response rating, Panicum, Fall [9, 14]: 90
Plant response rating, Panicum, Fall [9, 15]: 70
Plant response rating, Panicum, Fall [9, 16]: 90
Plant response rating, Panicum, Fall [9, 17]: 98
Plant response rating, Soybean (soybean (Glycine max); [11]): 0
Plant response rating, Soybean (soybean (Glycine max); [12]): 0
Plant response rating, Soybean (soybean (Glycine max); [13]): 0
Plant response rating, Soybean (soybean (Glycine max); [14]): 15
Plant response rating, Soybean (soybean (Glycine max); [15]): 0
Plant response rating, Soybean (soybean (Glycine max); [16]): 0
Plant response rating, Soybean (soybean (Glycine max); [17]): 0
